In patent US9801850B2, “Antibacterial agent” (OSAKA UNIVERSITY, priority 2009, dated 2017):
Values after ≈ are worked out from the molar mass of the structure shown.

Legend:
[1] = system: MSSA clinical isolate No. 3; test: MIC, broth microdilution (Example 2, Table 6); assay type: cell-based, Staphylococcus aureus
[2] = system: MRSA clinical isolate No. 8; test: MIC, broth microdilution (Example 2, Table 6); assay type: cell-based, Staphylococcus aureus
[3] = system: MRSA clinical isolate No. 11; test: MIC, broth microdilution (Example 2, Table 6); assay type: cell-based, Staphylococcus aureus
[4] = system: Bacillus cereus ATCC14579; test: Antibacterial spectrum MIC (Table 7); assay type: cell-based
Protocol: (§1) Methicillin-susceptible Staphylococcus aureus (MSSA) NCTC8325 and methicillin-resistant Staphylococcus aureus (MRSA) ATCC43300 were used as bacteria. The bacteria of each type were cultured using Mueller-Hinton Broth (MH-broth, Difco) as a medium. Then, the minimum inhibitory concentration (MIC) of each of the EGCG derivatives was measured by a broth microdilution method in accordance with the Clinical and Laboratory Standards Institute (CLSI) guidelines (hereinafter the same).
(§2) First, each of the EGCG derivatives was dissolved in 100% dimethyl sulfoxide (DMSO, Wako Pure Chemical Industries, Ltd.) so that the concentration thereof became 5120 μg/ml. The resultant solution was diluted with DMSO or sterile distilled water so as to prepare two-fold dilution series of antibacterial agent solutions. […] Each of these antibacterial agent solutions was dispensed to wells of a 96-well plate. The concentration of the EGCG derivative in the antibacterial agent solution dispensed to the wells was set to be 10 times as high as the final concentration. On the other hand, the bacteria were cultured in the MH-broth at 37° C. overnight, and the thus-obtained pre-culture solution was diluted with a new MH-broth so that the concentration thereof in the MH-broth became 10^−4 (10^4-fold dilution), thus preparing a bacterial culture solution of about 1×10^5 CFU/ml (CFU: Colony Forming Unit, the number of viable cells). The bacterial culture solution was further added to each well, and the mixture was cultured at 37° C. for 18 hours. The ratio (volume ratio) between the antibacterial agent solution and the bacterial culture solution added to each well was set to 1:9 (the antibacterial agent solution:the bacterial culture solution), and the volume of the mixture of them per well was set to 100 μl in total. The final concentration of the EGCG derivative in the mixture was set to 8 μg/ml to 512 μg/ml, and the number of viable cells in the mixture was set to about 1×10^5 CFU/ml. Then, after the completion of the culture, the MIC was determined. Also, the turbidity (OD600 nm) was measured using a plate reader so as to identify minor differences.
(§3) Regarding the respective type strains shown in Tables 7 and 8 below, the MIC measurement was performed using the antibacterial agent solutions of Example 2 in the same manner as described in Section (2) of Example 1, except for the following. The antibacterial agent solutions were prepared by dissolving the EGCG derivatives of Example 2 in 100% DMSO and then diluting the resultant mixtures with sterile distilled water. The respective strains were derived from ATCC or NCTC. As Moraxella catarrhalis and Aspergillus fumigatus, clinical isolates thereof without an acquired resistance mechanism were used. For nutrient-rich bacteria, namely, Streptococcus pneumoniae ATCC49619, Streptococcus pyogenes ATCC19615, Streptococcus agalactiae ATCC13813, Moraxella catarrhalis, and Haemophilis influenzae ATCC49766, Strepto Haemo supplement (Eiken Chemical Co., Ltd.) was added to media for culturing them. The MIC measurement with respect to fungi was carried out by a broth microdilution method using a RPMI1640/MOPS (pH 7.0) medium in accordance with CLSI guidelines. About 2×10^3 cells/ml of fungi were inoculated to the medium. After the culture at 35° C. for 24 to 48 hours, the MIC was determined. Also, regarding the antibacterial agent solution of Comparative Example 2, the MIC was measured in the same manner.

[5] = system: Bacillus subtilus ATCC6051; test: Antibacterial spectrum MIC (Table 7); assay type: cell-based
Protocol: as §1, §2, §3

[6] = system: Enterobacter aerogenes ATCC13048; test: Antibacterial spectrum MIC (Table 7); assay type: cell-based
Protocol: as §1, §2, §3

[7] = system: Enterobacter cloacae ATCC13047; test: Antibacterial spectrum MIC (Table 7); assay type: cell-based
Protocol: as §1, §2, §3

[8] = system: Enterococcus faecalis ATCC29212; test: Antibacterial spectrum MIC (Table 7); assay type: cell-based
Protocol: as §1, §2, §3

[9] = system: Escherichia coli ATCC25922; test: Antibacterial spectrum MIC (Table 7); assay type: cell-based
Protocol: as §1, §2, §3

[10] = system: Haemophilis influenzae ATCC49766; test: Antibacterial spectrum MIC (Table 7); assay type: cell-based; conditions: Strepto Haemo supplement
Protocol: as §1, §2, §3

[11] = system: Klebsiella oxytoca ATCC8724; test: Antibacterial spectrum MIC (Table 7); assay type: cell-based
Protocol: as §1, §2, §3

[12] = system: Micrococcus lutus ATCC9341; test: Antibacterial spectrum MIC (Table 7); assay type: cell-based
Protocol: as §1, §2, §3

Moraxella catarrhalis = test: Antibacterial spectrum MIC (Table 7); assay type: cell-based; conditions: Moraxella catarrhalis clinical isolate, Strepto Haemo supplement
Protocol: as §1, §2, §3

[13] = system: Neisseria gonorrhoeae ATCC49226; test: Antibacterial spectrum MIC (Table 7); assay type: cell-based
Protocol: as §1, §2, §3

Neisseria meningitidis = test: Antibacterial spectrum MIC (Table 7); assay type: cell-based
Protocol: as §1, §2, §3

[14] = system: Serratia marcescens ATCC13880; test: Antibacterial spectrum MIC (Table 7); assay type: cell-based
Protocol: as §1, §2, §3

[15] = system: Staphylococcus aureus ATCC43300 (MRSA); test: Antibacterial spectrum MIC (Table 7); assay type: cell-based
Protocol: as §1, §2, §3

[16] = system: Staphylococcus aureus NCTC8325; test: Antibacterial spectrum MIC (Table 7); assay type: cell-based
Protocol: as §1, §2, §3

[17] = system: Staphylococcus epidermis ATCC14990; test: Antibacterial spectrum MIC (Table 7); assay type: cell-based; conditions: for MIC: Staphylococcus epidermis ATCC14990; for antibacterial effect: Staphylococcus epidermids ATCC14990, comparison among EGCG derivatives
Protocol: as §1, §2, §3

[18] = system: Stenotrophomonas maltophilia ATCC13637; test: Antibacterial spectrum MIC (Table 7); assay type: cell-based
Protocol: as §1, §2, §3

[19] = system: Streptococcus agalactiae ATCC13813; test: Antibacterial spectrum MIC (Table 7); assay type: cell-based; conditions: Strepto Haemo supplement
Protocol: as §1, §2, §3

[20] = system: Streptococcus pyogenes ATCC19615; test: Antibacterial spectrum MIC (Table 7); assay type: cell-based; conditions: Strepto Haemo supplement
Protocol: as §1, §2, §3

[21] = system: Yersinia enterocolitica ATCC9610; test: Antibacterial spectrum MIC (Table 7); assay type: cell-based
Protocol: as §1, §2, §3

Compound | MIC [1] [µg/mL] | MIC [2] [µg/mL] | MIC [3] [µg/mL] | MIC [4] [µg/mL] | MIC [5] [µg/mL] | MIC [6] [µg/mL] | MIC [7] [µg/mL] | MIC [8] [µg/mL] | MIC [9] [µg/mL] | MIC [11] [µg/mL] | MIC [12] [µg/mL] | MIC (Moraxella catarrhalis) [µg/mL] | MIC [13] [µg/mL] | MIC (Neisseria meningitidis) [µg/mL] | MIC [14] [µg/mL] | MIC [15] [µg/mL] | MIC [16] [µg/mL] | MIC [17] [µg/mL] | MIC [18] [µg/mL] | MIC [19] [µg/mL] | also measured
O=C(O[C@@H]1Cc2c(O)cc(O)cc2O[C@@H]1c1cc(O)c(O)c(O)c1)c1cc(O)c(O)c(O)c1 [EGCG, Epigallocatechin gallate, reference compound] | >128 | 128 (≈ 279 µM) | >128 | 64 (≈ 140 µM) | 64 (≈ 140 µM) | 64 (≈ 140 µM) | 128 (≈ 279 µM) | 256 (≈ 558 µM) | 128 (≈ 279 µM) | 128 (≈ 279 µM) | 128 (≈ 279 µM) | 128 (≈ 279 µM) | 32 (≈ 69.8 µM) | 32 (≈ 69.8 µM) | 128 (≈ 279 µM) | 128 (≈ 279 µM) | 128 (≈ 279 µM) | 128 (≈ 279 µM) | 64 (≈ 140 µM) | 256 (≈ 558 µM) | MIC [10]: 32 µg/mL (≈ 69.8 µM); MIC [20]: 128 µg/mL (≈ 279 µM); MIC [21]: 64 µg/mL (≈ 140 µM)
EGCG-dioctanoate [EGCG-C8×2] | 16 | 4 | 32 | 16 | 32 | 16 | 64 | 64 | 64 | 64 | 64 | 32 | 16 | 16 | 64 | 64 | 16 | 64 | 32 | 64 | MIC [10]: 16 µg/mL; MIC [20]: 32 µg/mL; MIC [21]: 32 µg/mL
EGCG-linolate [EGCG-C18DE] | 16 | 8 | 32 | 16 | 32 | 32 | 64 | 64 | 64 | 64 | 64 | 64 | 16 | 16 | 64 | 64 | 16 | 64 | 32 | >64 | MIC [10]: 16 µg/mL; MIC [20]: 64 µg/mL; MIC [21]: 32 µg/mL
EGCG-oleate [EGCG-C18E] | 32 | 8 | 64 | 32 | 32 | 32 | 64 | >64 | 64 | 64 | 64 | 32 | 16 | 16 | 64 | 64 | 32 | 64 | 32 | >64 | MIC [10]: 16 µg/mL; MIC [20]: 64 µg/mL; MIC [21]: 32 µg/mL
EGCG-palmitate [EGCG-C16] | 16 | 8 | 32 | 16 | 16 | 32 | 64 | 16 | 64 | 64 | 64 | 64 | 16 | 16 | 64 | 32 | 16 | 32 | 32 | >64 | MIC [10]: 16 µg/mL; antibacterial effect [17]: strongest antibacterial effect; MIC [20]: 64 µg/mL; MIC [21]: 32 µg/mL
EGCG-palmitoleate [EGCG-C16E] | 16 | 8 | 64 | 16 | 16 | 32 | 64 | 64 | 64 | 64 | 64 | 64 | 16 | 16 | 64 | 64 | 16 | 64 | 32 | >64 | MIC [10]: 16 µg/mL; MIC [20]: 64 µg/mL; MIC [21]: 32 µg/mL
EGCG-stearate [EGCG-C18] | 32 | 16 | 64 | 32 | 32 | 32 | 64 | 32 | 64 | 64 | 64 | 64 | 16 | 16 | 64 | 32 | 32 | 32 | 32 | 64 | antibacterial effect [17]: strongest antibacterial effect; MIC [20]: 64 µg/mL; MIC [21]: 32 µg/mL
EGCG-α-linoleate [EGCG-C18TE] | 16 | 8 | 64 | 32 | 32 | 32 | 64 | 64 | 64 | 64 | 64 | 32 | 16 | 16 | 64 | 64 | 16 | 64 | 32 | >64 | MIC [10]: 16 µg/mL; MIC [20]: 64 µg/mL; MIC [21]: 32 µg/mL
